This is an account of results in patent US11110080B2, “Small molecule inhibitors of bacterial efflux pumps and methods of using same” (The Regents of the University of Colorado, a body Corporate, priority 2017, dated 2021).

The test system of series [1] is S.Tm infection of C57BL/6 mice. Briefly: Mouse infection with S.Tm, tetracycline and EPM35 treatment. The procedure: Finally, whether EPM35 increased sensitivity of 510801 and wild-type S.Tm to tetracycline in vivo was tested. 7-week-old C57BL/6 mice were intraperitoneally infected with 1×10^4 bacteria. At 30 minutes and 24 hours post-infection, 25 mg/kg tetracycline and 50 mg/kg EPM35 was injected. […] Thus, the experiment was ended at 30 hours post-infection; the spleen and liver were harvested and plated to determine bacterial CFU.
These studies were carried out in strict accordance with the recommendations in the Guide for the Care and Use of Laboratory Animals of the National Institutes of Health, and all protocols were approved by the University of Colorado Institutional Committees for Biosafety and for Animal Care and Use. Bacteria were grown overnight in LB, then diluted in PBS. Seven week old C57/B16 female mice were intraperitoneally injected with 1×10^4S.Tm in 100 μL. Thirty minutes later, mice received two intraperitoneal injections: 25 mg/kg tetracycline in 150 μL PBS or PBS alone, and 50 mg/kg EPM35 in 100 μL DMSO or DMSO alone. Drug injections were repeated at 24 hours post-infection. At 30 hours post-infection, mice were humanely euthanized using carbon dioxide asphyxiation followed by cervical dislocation. Spleens and livers were harvested, homogenized, diluted in PBS, and plated to enumerate S.Tm CFUs.

The subject of the next series is wild-type S.Tm. Briefly: Growth in broth with antimicrobial peptides (polymyxin B, LL-37) and EPMs. The settings on record: polymyxin B 5 μg/ml (⅛ MIC) + 25 μM EPM. The series is classed as cell-based, Salmonella enterica serovar Typhimurium. The source says: Next, it was investigated how EPMs might lead to bacterial clearance within host cells. […] Instead, EPMs may synergize with a host antimicrobial(s) that is effluxed by EPs. Two S.Tm EPs are necessary for infection of macrophages and mice (FIG. 10). The first EP, MacAB, is important for defense against ROS. The second S.Tm EP, AcrAB, is a homolog of MtrCDE, an EP in Neisseria gonorrhoeae which exports host antimicrobial peptides (AMPs). AcrAB thus likely exports AMPs as well as a variety of other substrates including antibiotics, dyes, and detergents. To test whether the EPMs synergize with macrophage defenses, wild-type bacteria was exposed in broth to ROS or AMPs in the presence of EPMs. […] Next, the two AMPs were tested: polymyxin B is a model peptide produced by bacteria; LL-37 is a human cathelicidin produced by macrophages.
Overnight Salmonella cultures were washed 3 times in PBS and diluted to an OD of 0.01 in Mueller Hinton Broth in 96-well flat bottom plates. Compound was added using a pin tool (CyBio) or manually, yielding a final concentration of no more than 1% DMSO. Plates were grown at 37° C. shaking and OD600 was monitored using a BioTek Eon incubator shaker microplate absorbance reader. For experiments in defined media, bacteria were grown in M9 minimal media supplemented with 100 mM Tris pH 7.4, 0.35% glycerol, 0.002% histidine, 10 mM MgCl2, and 0.1% casamino acids. […]

The test system of series [2] is S.Tm wild-type SL1344, MAR1 and S10801. Put plainly: microbe, parasite or virus in culture. It counts as cell-based, Salmonella enterica serovar Typhimurium. Particulars: for sensitivity of MDR S.Tm to tetracycline: MAR1 and S10801. The protocol: Increased expression or function of efflux pumps often contributes to clinical multidrug resistance. Therefore, whether the EPMs re-sensitize two multidrug resistant strains of S.Tm to tetracycline was tested. Tetracycline is an antibiotic exported by AcrAB. The MAR1 strain is derived from wild-type SL1344 was selected by exposure to tetracycline, and has increased expression of the AcrAB efflux pump. S10801 is an MDR strain isolated from the mesenteric lymph node of a septic calf and is resistant to tetracycline, ampicillin, chloramphenicol, nalidixic acid, and triple sulfa. The basis of multi-drug resistance in this strain is unknown.
Overnight Salmonella cultures were washed 3 times in PBS and diluted to an OD of 0.01 in Mueller Hinton Broth in 96-well flat bottom plates. Compound was added using a pin tool (CyBio) or manually, yielding a final concentration of no more than 1% DMSO. Plates were grown at 37° C. shaking and OD600 was monitored using a BioTek Eon incubator shaker microplate absorbance reader. For experiments in defined media, bacteria were grown in M9 minimal media supplemented with 100 mM Tris pH 7.4, 0.35% glycerol, 0.002% histidine, 10 mM MgCl2, and 0.1% casamino acids. Where indicated, media was supplemented with 5 μg/ml polymyxin B or 0.2 mM H2O2. For experiments with LL-37, bacteria were grown in M9 minimal media supplemented with 0.4% dextrose, 0.004% histidine, 1 mM MgSO4, and 5 μg/ml LL-37. For checkerboard assays, MIC was defined as the concentration at which no growth was visually observed.

Series [3] is described as follows: Log D, solubility and predicted bioavailability. It counts as physicochemical. Particulars: aqueous.
The test system of another series is HepG2 human liver cells. Briefly: LDH cytotoxicity assay. The series is classed as cell-based. Particulars: 16 hours. The procedure:
Cytoxocity was determined using the Pierce Lactate Dehydrogenase (LDH) Cytoxicity Assay. HepG2 liver cells were plated at 5×10^4 in 96 well tissue culture plates and allowed to settle overnight. Cells were treated with a 2-fold dilutions of each compound for 16 hours. Fifty microliters of conditioned media was mixed with the LDH assay reagent, incubated for 30 minutes, and absorbance was read at 490 and 680 nm. Curve fitting to determine CC50s was performed using GraphPad Prism; the CC50 is defined as 50% of the maximum LDH release as determined by lysed macrophages. There was no spontaneous LDH release or LDH present in the media.

Molecules are shown by their SMILES.

Take `OC(COc1ccc(Cl)c(Cl)c1)CN1CCC(Nc2nccc(C(F)(F)F)n2)CC1` (stereo not shown) [EPM35]: the “signs in treated mice” value in series [1] (50 mg/kg intraperitoneal at 30 minutes and 24 hours post-infection) is “Distress was observed”. In series [1] (S10801-infected mice, 25 mg/kg tetracycline + 50 mg/kg EPM35), the “bacterial CFU in spleen and liver, co-treatment with tetracycline” value is given as “appeared to further reduce bacterial CFU”. Further, the “enhanced decrease of CFU on co-treatment with tetracycline” value in series [1] (mice infected with wild-type bacteria, 25 mg/kg tetracycline + 50 mg/kg EPM35) is on record as “not observed”. Also, the “growth on co-treatment with polymyxin B” value in the series with wild-type S.Tm is given as “completely inhibited growth”. For the same compound, the “decrease of the tetracycline MIC” value in series [2] (50 μM (⅛ MIC), both strains MAR1 and S10801) is on record as 4 fold. Further, the “sensitivity of MDR S.Tm to tetracycline” value in series [2] is reported as “increased sensitivity to tetracycline”.
Regarding `Cc1ccc(Sc2cccc3nc(N)nc(N)c23)cc1` [EPM43], the “growth on co-treatment with polymyxin B” value in the series on wild-type S.Tm is recorded as “completely inhibited growth”. In addition, in series [3], the solubility entry is reported as “poor aqueous solubility”. In addition, the “sensitivity of MDR S.Tm to tetracycline” value in series [2] is on record as “not”. Also, in the series with HepG2 human liver cells, the “toxicity in HepG2 LDH assays” value is on record as “less toxic to HepG2 cells than the other EPMs”.
